Tests used:
CCRF-CEM [1] = assay: In vitro inhibitory activity against replication of HIV-2 in human lymphocyte CEM cells; format: functional, cell-based
MT4 [2] = assay: In vitro inhibitory activity against replication of HIV-1 in human lymphocyte MT-4 cells; format: functional, cell-based
CCRF-CEM [3] = assay: In vitro inhibitory activity against replication of HIV-2 in human lymphocyte thymidine kinase deficient CEM cells; format: functional, cell-based
MT4 [4] = assay: In vitro inhibitory activity against replication of HIV-2 in human lymphocyte MT-4 cells; format: functional, cell-based
CCRF-CEM [5] = assay: In vitro inhibitory activity against replication of HIV-1 in human lymphocyte CEM cells; format: functional, cell-based
MT4 [6] = assay: Cytotoxicity against human lymphocyte MT-4 cells; format: functional

| Compound | EC50 (CCRF-CEM [1]) | EC50 (MT4 [2]) | EC50 (CCRF-CEM [3]) | EC50 (MT4 [4]) | EC50 (CCRF-CEM [5]) | CC50 (MT4 [6]) |
| --- | --- | --- | --- | --- | --- | --- |
| Cc1cn(C2CC(N=[N+]=[N-])C(COP(=O)(Oc3ccccc3[N+](=O)[O-])Oc3ccccc3[N+](=O)[O-])O2)c(=O)[nH]c1=O (configuration not stated) | 6.2 nM | 12.1 nM | > 100000 nM | 14 nM | 5.3 nM | 42000 nM |
| Cc1cn(C2CC(N=[N+]=[N-])C(COP(=O)(Oc3cccc([N+](=O)[O-])c3)Oc3cccc([N+](=O)[O-])c3)O2)c(=O)[nH]c1=O (configuration not stated) | 3.8 nM | 2.5 nM | 85000 nM | 3.1 nM | 3.8 nM | 36000 nM |
| Cc1cn(C2CC(N=[N+]=[N-])C(COP(=O)(Oc3ccc([N+](=O)[O-])cc3)Oc3ccc([N+](=O)[O-])cc3)O2)c(=O)[nH]c1=O (configuration not stated) | 15 nM | 13 nM | 50000 nM | 10 nM | 9 nM | 50000 nM |
| Cc1cn([C@H]2C[C@H](N=[N+]=[N-])[C@@H](CO)O2)c(=O)[nH]c1=O [ZIDOVUDINE] | 3.5 nM | 2.5 nM | > 100000 nM |  |  | 6000 nM |

From ChEMBL document CHEMBL1150553, “Diaryl phosphate derivatives act as pro-drugs of AZT with reduced cytotoxicity compared to the parent nucleoside” (Bioorg Med Chem Lett, 1994)
